Results: US20100183645A1, “ACTIVE OR PASSIVE IMMUNIZATION AGAINST PROAPOPTOTIC NEUROTROPHINS FOR THE TREATMENT AND/OR PREVENTION OF NEURODEGENERATIVE DISEASES” (INSTITUT PASTEUR, priority 2003, published 2010)

Legend:
[1] = system: motor neurons plated on astrocyte monolayers; assay: Motor neuron survival in astrocyte-motor neuron co-cultures; assay type: cell-based, rat; conditions: for Motor neuron survival, percentage of control: co-cultures treated with NGF, mean±SD
Description: Cell cultures and treatments. […] Astrocytes were plated at a density of 2×10^4 cells/cm^2 and maintained in DMEM supplemented with 10% fetal bovine serum, HEPES (3.6 g/l), penicillin ([…]) and streptomycin (100 μg/ml).
For co-culture experiments, motor neurons were plated on astrocyte monolayers at a density of 300 cells/cm^2 and maintained in L15 medium supplemented with 0.63 mg/ml bicarbonate, 5 μg/ml insulin, 0.1 mg/ml conalbumin, 0.1 mM putrescine, 30 nM sodium selenite, 20 nM progesterone, 20 mM glucose, 100 IU/ml penicillin, 100 μg/ml streptomycin, and 2% horse serum. Drugs and blocking antibodies were added 3 h after plating at the indicated concentrations.
Treatments with peroxynitrite and LPS. Peroxynitrite was generously provided by Dr. Rafael Radi (UDELAR, Uruguay) and its concentration determined spectrophotometrically at 302 nm (e=1700 M^−1 cm^−1). Confluent astrocyte monolayers were washed with Dulbecco's phosphate-buffered saline (PBS), supplemented with 0.8 mM MgCl2, 1 mM CaCl2, and 5 mM glucose, and then incubated in 1 ml of 50 mM Na2HPO4, 90 mM NaCl, 5 mM KCl, 0.8 mM MgCl2, 1 mM CaCl2, and 5 mM glucose, pH 7.4. Finally, three additions of 5 μL bolus of peroxynitrite were made to reach the final concentration of 0.5 mM. Five minutes after peroxynitrite exposure, the buffer was removed and replaced with L15 medium, supplemented as described above. In co-culture experiments, motor neurons were plated 1 h after peroxynitrite exposure. […] LPS (from E. coli 026-B6 Cat. No L2654 Sigma) was directly applied to astrocyte monolayers 24 h before and immediately after plating of motor neurons in coculture experiments.

[2] = system: pure motor neuron cultures; assay: Motor neuron survival in pure motor neuron cultures maintained with GDNF; assay type: cell-based, rat; conditions: for Motor neuron survival with peroxynitrite-treated neurotrophin: without exogenous nitric oxide, GDNF 1 ng/ml, 48 h
Description: Purified motor neuron cultures were plated at a density of 300 cells/cm^2 in dishes precoated with polyornithinelaminin and maintained in Neurobasal medium supplemented with 2% horse serum, […] L-glutamate, 25 μM β-mercaptoethanol, 0.5 mM L-glutamine, and 2% B-27 supplement (Gibco-Invitrogen). Blocking antibodies were added 3 h after plating at the indicated dilutions. The generation of a low steady state concentration (<50 nM) of nitric oxide was generated by the spontaneous deassociation of 10 μM DETA-NONate (Cayman).
To assess the pro-apoptotic activity of conditioned media, astrocyte monolayers were incubated for 24 h in Neurobasal medium supplemented as described above, and that medium immediately used to replace the medium of pure motor neuron cultures established 24 h before. Blocking antibodies and DETA-NONOate were added to the conditioned media and motor neuron survival determined after 48 h.
To assess the pro-apoptotic activity in spinal cord extracts, lumbar cords were dissected from 90 day-old G93A mice or non-transgenic littermates over ice under sterile conditions. To 100 mg of tissue were added 0.4 ml of PBS containing 3 mM EGTA, 1 mM EDTA, 0.5 μg/ml aprotinin, 0.5 μg/ml pepstatin and 0.1 mM PMSF at 0° C., and the tissue was then homogenized under sterile conditions. Homogenates were centrifuged at 40,000 g for 1 hr and the clear supernatants collected and kept at −80° C. until used. Aliquots were added to motor neuron cultures to reach a final protein concentration of 0.5 μg/ml. In all cases, blocking antibodies and drugs were added 3 h after motor neuron plating. The generation of a steady state concentration (<50 nM) of nitric oxide was obtained by the spontaneous disassociation of 10 μM NOC-18 (Dojindo, Gaithersburg).
Cell counts. Motor neuron survival was assessed by directly counting all cells displaying intact neurites longer than 4 cells in diameter following immunostaining against p 75NTR Counts were performed over an area of 2.76 cm^2 in the center of 35 mm dishes or in an area measuring 0.90 cm^2 along a diagonal in 24-well plates (Cassina et al., 2002). The mean density of motor neurons in control cocultures was 90±4 cells/cm^2.
Protocol for preparation of muscle extracts and western blotting. Quadriceps muscles were dissected from symptomatic G93A SOD1 or non transgenic littermate mice over ice under sterile conditions. To 1 g of tissues was added 4 ml of PBS containing 3 mM EGTA, 1 mM EDTA, 0.5 mg/ml aprotinin, 0.5 mg/ml pepstatin and 0.1 mM PMSF at 0° C., and the tissue was homogenized under sterile conditions. Homogenates were centrifuged at 40,000 g for 1 hr and the clear supernatants collected and kept at −80° C. until used. Quadriceps were homogenized in lysis buffer containing 2 mM EDTA, 1% SDS, 1 mM PMSF, 10 μg/ml aprotinin, 1 μg/ml leupeptin and 0.5 mM sodium vanadate. Protein quantification was performed using the BCA Protein Assay Reagent kit (Pierce Biotechnology). The samples were prepared in Laemmli buffer supplemented with […] and proteins were transferred to nitrocellulose membrane (Amersham). Membranes were blocked for 2 h in blocking buffer (5% BSA, 0.1% Tween 20 in Tris-buffered saline (TBS), pH 7.4) followed by an over-night incubation with the primary antibody diluted in blocking buffer. […]

[3] = system: cultured spinal cord astrocytes; assay: ELISA determination of NGF secreted by cultured spinal cord astrocytes; assay type: cell-based, rat; conditions: peroxynitrite 0.5 mM
Description: Cell cultures and treatments. Primary astrocyte cultures were prepared from the spinal cords of rats aged 1-2 days according to the procedures of Saneto and De Vellis (1987), with minor modifications (Cassina et al., 2002). Astrocytes were plated at a density of 2×10^4 cells/cm^2 and maintained in DMEM supplemented with 10% fetal bovine serum, HEPES (3.6 g/l), penicillin ([…]) and streptomycin (100 μg/ml). The astrocyte monolayers were >98% pure as determined by GFAP immunoreactivity and were devoid of OX42-positive microglial cells.
Treatments with peroxynitrite and LPS. Peroxynitrite was generously provided by Dr. Rafael Radi (UDELAR, Uruguay) and its concentration determined spectrophotometrically at 302 nm (e=1700 M^−1 cm^−1). Confluent astrocyte monolayers were washed with Dulbecco's phosphate-buffered saline (PBS), supplemented with 0.8 mM MgCl2, 1 mM CaCl2, and 5 mM glucose, and then incubated in 1 ml of 50 mM Na2HPO4, 90 mM NaCl, 5 mM KCl, 0.8 mM MgCl2, 1 mM CaCl2, and 5 mM glucose, pH 7.4. Finally, three additions of 5 μL bolus of peroxynitrite were made to reach the final concentration of 0.5 mM. […]
Determination of NGF/proNGF. The NGF protein concentration in the culture medium from astrocytes or spinal cord extracts was quantified using the NGF Emax ImmunoAssay System kit (Promega) following the manufacturer's instructions.

[4] = system: G93A SOD-1 transgenic mice; assay: ALS-like disease progression and survival after systemic immunization against NGF; assay type: in vivo
Description: Systemic immunization against NGF on ALS-like disease progression and survival in transgenic mouse overexpressing mutant G93A-SOD1 gene. Animals. The transgenic mouse line overexpressing mutant G93A-SOD1 gene [TgN(SOD1-G93A)1Gur, a high expression mouse line] and the mating pairs were purchased from Jackson laboratory (Bar Harbor, Me., USA). Mice were housed and bred as described previously (Gurney et al. 1994) in accordance with the Institutional Animal Care guidelines.
Immunization protocol. Adult, female, 40-50 day-old mice, initially weighing 18-24 g, were used for these experiments. Mice were group-housed 5 mice per cage and allowed free access to food and water. For testing, a total of 10 mice per group were autoimmunized against NGF. Each received […] of 25 μg of 2.5S mouse NGF (Harlam, USA) in 0.1 ml of a suspension of aluminum phosphate used as adjuvant. A second injection of 2.5S NGF (50 μg) in the same adjuvant was given 3 weeks later. Non-transgenic and vehicle-injected mice served as control animals for survival tests.
Analysis of ALS-like disease progression and survival in transgenic mouse. Mice were examined daily for paralysis, disease progression and survival analysis. The initial symptoms of hind leg paralysis or failure to remain suspended in an inverted grid were considered as the disease progression threshold. Mice were killed at terminal stage, i.e. severely paralysis and inability to seek food and water.

In the case of `COC(=O)CC[C@H](NC(=O)[C@H](CC(=O)OC)NC(=O)OCc1ccccc1)C(=O)N[C@H](C(=O)N[C@@H](CC(=O)OC)C(=O)CF)C(C)C` [DEVD-fmk], the “Prevention of NGF-induced motor neuron death by caspase inhibitors” value ([1]; co-culture, 10 μM added every 24 hours) is reported as “prevented”.

With `CC(=N)NCCCC[C@H](N)C(=O)O` [LNIL, L-N6-(1-Iminoethyl)-lysine] the “Prevention of motor neuron apoptosis induced by NGF” value (shortened to “Prevention … by NGF”) ([1]; co-culture, 10 μM, 72 h) was “significantly prevented”.

With `CCCNC(=N)NCCC[C@H](N)C(=O)O` [NPLA, N5[Imino(propylamino)methyl]-Lornithine; Nu-Propyl-L-arginine] the “Prevention … by NGF” value ([1]; co-culture, 10 μM, 72 h) was “significantly prevented” and the “Motor neuron survival, percentage of control” value ([1]; inhibitor 10 μM, 72 h) was 110.4±9.2%.

In the case of `[N]=O` [Nitric oxide, reference compound], the “Motor neuron survival, nitric oxide alone” value ([2]; <50 nM from 10 μM NOC-18, without NGF) is reported as “did not affect motor neuron survival”.

`FC(F)(F)c1ccccc1-n1ccnc1` [TRIM, 1-(2-Trifluoromethylphenyl)imidazole] was tested, and the “Prevention … by NGF” value ([1]; co-culture, 10 μM, 72 h) was “significantly prevented”.

For `N=C(N)NN` [aminoguanidine], the “Prevention … by NGF” value ([1]; co-culture, 50 μM, 72 h) was “significantly prevented” and the “Motor neuron survival, percentage of control” value ([1]; inhibitor 50 μM, 72 h) was 87.0±8.0%.

For `O=NOO` [peroxynitrite], the “Increase of NGF secretion to the culture medium” value ([3]; 24 hours after treatment, LPS 1 μg/ml) was roughly 9 fold and the “NGF concentration in conditioned culture media versus controls” value ([3]; after 3 days) was 5 fold.

In the case of `Oc1nc(O)c2nc(O)[nH]c2n1` [urate], the “Prevention of the effects of NGF on motor neurons” value ([1]; co-culture, 200 μM, 72 h) is reported as “prevented”.

B1: peroxynitrite-treated NGF: NGF oxidised by peroxynitrite, forming high molecular weight NGF aggregates (protein)
chain: SSTHPVFHMGEFSVCDSVSVWVGDKTTATDIKGKEVTVLAEVNINNSVFRQYFFETKCRASNPVESGCRGIDSKHWNSYCTTTHTFVKALTTDEKQAAWRFIRIDTACVCVLSRKATRRG
B1 was tested, and the “Motor neuron survival with peroxynitrite-treated neurotrophin” value [2] was “Decreased motor neuron survival”.

B2: BDNF treated with peroxynitrite: brain-derived neurotrophic factor treated with peroxynitrite by the identical protocol (protein, UniProt P23560 129-247, looked up)
Neurotrophic factor BDNF: HSDPARRGELSVCDSISEWVTAADKKTAVDMSGGTVTVLEKVPVSKGQLKQYFYETKCNPMGYTKEGCRGIDKRHWNSQCRTTQSYVRALTMDSKKRIGWRFIRIDTSCVCTLTIKRGR
modifications: Neurotrophic factor BDNF peroxynitrite-treated
notes: brain-derived neurotrophic factor treated with peroxynitrite by the identical protocol
For B2, the “Motor neuron survival with peroxynitrite-treated neurotrophin” value [2] was “induces motor neuron apoptosis”.

B3: NGF: mouse NGF (2.5S) from Harlan; nerve growth factor, also the immunogen in aluminum phosphate adjuvant (protein)
chain: B1 chain
For B3, the “Motor neuron apoptosis in the presence of nitric oxide” value ([2]; NGF 100 ng/ml, nitric oxide <50 nM from 10 μM NOC-18) was “induce motor neuron apoptosis”, the “Survival of motor neurons maintained with GDNF” value ([2]; NGF 100 ng/ml, no nitric oxide donor) was “no effect” and the “Tolerability of NGF autoimmunization” value ([4]; all NGF autoimmunized mice) was “gained weight and did not display any signs of discomfort”. For the same molecule, the “Delay of survival versus mice injected with adjuvant only” value ([4]; female G93A mice, NGF in aluminum phosphate s.c., in average) was 10 to 15 days, the Disease onset ([4]; in most of the NGF autoimmunized mice) was “delayed” and the “Motor neurons with fewer neurites, immunoreactive for nitrotyrosine and cleaved caspase-3” value ([1]; NGF 100 ng/ml, after 24 h in culture) was “Approximately 50%”. For the same molecule, the “Survival of motor neurons cultured on unstimulated astrocytes” value ([1]; NGF 0.1-100 ng/ml, 72 h) was “reduced in a dose-dependent manner”, the “Motor neuron survival after pre-incubation of the astrocyte monolayer” value ([1]; NGF removed before neuron plating) was “no effect” and the “Subset of motor neurons vulnerable to NGF in culture” value ([1]; co-cultures) was roughly 40%.
